Measured values reported in patent US6864253B2, “Benzo[4,5]thieno[2,3-c]pyridine and Benzo[4,5]furo[2,3-c]pyridine Derivatives Useful as Inhibitors of Phosphodiesterase” (Orth-McNeil Pharmaceutical, Inc., priority 2000, dated 2005).
“And” between values parts separate entries of the source, which are not always exact repeats. Equal values may be shown once.

Target: PDEV (Oryctolagus cuniculus, UniProt G1SX67)
Assay: Cyclic nucleotide phosphodiesterase (PDE) assay, inhibition of PDEV isolated from rabbit tissue
Format: biochemical
Conditions: 10 μM test compound; rabbit PDEV
Experimental: Briefly, rabbit or human tissues were homogenized in an ice-cold buffer solution containing 20 mM HEPES (pH 7.2), 0.25M sucrose, 1 mM EDTA, and 1 mM phenylmethylsulphonyl fluoride (PMSF). The homogenates were centrifuged at 100,000 g for 60 minutes at 4° C. The supernatant was filtered through […] filter and loaded on a Pharmacia Mono Q anion exchange column (1 ml bed volume) that was equilibrated with 20 mM HEPES, 1 mM EDTA and 0.5 mM PMSF. […] The fractions comprising various PDE activities were pooled separately and used in later studies.
The assays were adapted to a 96-well format. The enzyme was assayed in 5 mM MgCl2, 15 mM Tris HCl (pH 7.4), 0.5 mg/ml bovine serum albumin, 1 μM cGMP or cAMP, 0.1 μCi [^3H]-cGMP or [^3H]-cAMP, and 2-10 μl of column elution. The total volume of the assay was 100 μl. The reaction mixture was incubated at 30° C. for 30 minutes. The reaction was stopped by boiling for 1 minute and then cooled down on ice. The resulting [^3H] 5′-mononucleotides were further converted to uncharged [^3H]-nucleosides by adding 25 μl 1 mg/ml snake venom (Ophiophagus hannah) and incubating at 30° C. for 10 minute. The reaction was stopped by the addition of 1 ml Bio-Rad AG1-X2 resin slurry (1:3). All the charged nucleotides were bound by the resin and only the uncharged [^3H]-nucleosides remained in the supernatant after centrifuging. An aliquot of 200 μl was taken and counted by liquid scintillation. PDE activity was expressed as pmol cyclic nucleotide hydrolyzed/min/ml of enzyme preparation.
Inhibitor studies were carried out in assay buffer with a final concentration of 10% DMSO.

| Compound | % Inh @ 10 μM (rabbit) |
| --- | --- |
| Cc1oc(-c2ccccc2)cc1C(=O)N1CCc2c([nH]c3ccccc23)C1c1ccc2c(c1)OCO2 (racemic) [Cmpd 104] | 72% |
| O=C(c1cc(-c2ccc(Cl)cc2)oc1C(F)(F)F)N1CCc2c([nH]c3ccccc23)C1c1ccc2c(c1)OCO2 (racemic) [Cmpd 105] | 40% |
| Cc1cc(C(=O)N2CCc3c([nH]c4ccccc34)C2c2ccc3c(c2)OCO3)nn1-c1ccccc1 (racemic) [Cmpd 106] | 70% |
| Cc1cc(C(=O)N2CCc3c([nH]c4ccccc34)C2c2ccc(OCCCN(C)C)cc2)nn1-c1ccccc1 (racemic) [Cmpd 107] | 15% |
| O=C(c1ccc(Cl)nc1)N1CCc2c([nH]c3ccccc23)C1c1ccc2c(c1)OCO2 (racemic) [Cmpd 108] | 48% |
| Cc1onc(-c2ccccc2)c1C(=O)N1CCc2c([nH]c3ccccc23)C1c1ccc(Cl)c(Cl)c1 (racemic) [Cmpd 109] | 31% |
| COc1ccc(C2c3[nH]c4ccccc4c3CCN2C(=O)c2c(-c3ccccc3)noc2C)cc1OC (racemic) [Cmpd 110] | 32% |
| Cc1ccc(C2c3[nH]c4ccccc4c3CCN2C(=O)c2c(-c3ccccc3)noc2C)cc1C (racemic) [Cmpd 111] | 35% |
| Cc1onc(-c2ccccc2)c1C(=O)N1CCc2c([nH]c3ccccc23)C1c1ccc2c(c1)OCO2 (racemic) [Cmpd 112] | 33% |
| Cc1cc(C)cc(C2c3[nH]c4ccccc4c3CCN2C(=O)c2c(-c3ccccc3)noc2C)c1 (racemic) [Cmpd 113] | 29% |
| Cc1onc(-c2ccccc2)c1C(=O)N1CCc2c([nH]c3ccccc23)C1c1ccc(Cl)c(C(F)(F)F)c1 (racemic) [Cmpd 114] | 27% |
| Cc1onc(-c2ccccc2)c1C(=O)N1CCc2c([nH]c3ccccc23)C1c1ccc(C#N)cc1 (racemic) [Cmpd 115] | 30% |
| COC(=O)c1ccc(C2c3[nH]c4ccccc4c3CCN2C(=O)c2c(-c3ccccc3)noc2C)cc1 (racemic) [Cmpd 116] | 32% |
| COc1ccc(C2c3[nH]c4ccccc4c3CCN2C(=O)c2c(-c3ccccc3)noc2C)cc1 (racemic) [Cmpd 117] | 32% |
| Cc1onc(-c2ccccc2)c1C(=O)N1CCc2c([nH]c3ccccc23)C1c1ccc([N+](=O)[O-])cc1 (racemic) [Cmpd 118] | 28% |
| Cc1ccc(C2c3[nH]c4ccccc4c3CCN2C(=O)c2cnn(-c3ccccc3)c2C(F)(F)F)cc1C (racemic) [Cmpd 119] | 28% |
| O=C(c1cnn(-c2ccccc2)c1C(F)(F)F)N1CCc2c([nH]c3ccccc23)C1c1ccc(Cl)c(Cl)c1 (racemic) [Cmpd 120] | 18% |
| COc1ccc(C2c3[nH]c4ccccc4c3CCN2C(=O)c2cnn(-c3ccccc3)c2C(F)(F)F)cc1OC (racemic) [Cmpd 121] | 10% |
| CCCc1c(C(=O)N2CCc3c([nH]c4ccccc34)C2c2ccc3c(c2)OCO3)cnn1-c1ccccc1 (racemic) [Cmpd 122] | 65% |
| CN(C)CCn1c2c(c3ccccc31)CCN(c1nc3ccccc3s1)C2c1ccc2c(c1)OCO2 (stereo not shown) [Cmpd 2] | 43% |
| c1ccc2sc(N3CCc4c([nH]c5ccccc45)C3c3ccc4c(c3)OCO4)nc2c1 (stereo not shown) [Cmpd 3] | 84% |
| CN(C)CCn1c2c(c3ccccc31)CCN(c1ncc(-c3ccc(Cl)cc3)cn1)C2c1ccc2c(c1)OCO2 (stereo not shown) [Cmpd 4] | 94% |
| COc1ccc(-c2cnc(N3CCc4c(n(CCN(C)C)c5ccccc45)C3c3ccc4c(c3)OCO4)nc2)cc1 (stereo not shown) [Cmpd 6] | 95% |
| CS(=O)(=O)c1ccc(-c2cnc(N3CCc4c([nH]c5ccccc45)C3c3ccc4c(c3)OCO4)nc2)c([N+](=O)[O-])c1 (stereo not shown) [Cmpd 8] | 89% |
| COc1ccc(-c2cnc(N3CCc4c([nH]c5ccccc45)C3c3ccc4c(c3)OCO4)nc2)cc1 (stereo not shown) [Cmpd 9] | 80% |
| Clc1ccc(-c2cnc(N3CCc4c([nH]c5ccccc45)C3c3ccc4c(c3)OCO4)nc2)cc1 (stereo not shown) [Cmpd 10] | 79% |
| FC(F)(F)c1ccc(Cl)c(-c2ccc(CN3CCc4c([nH]c5ccccc45)C3c3ccc4c(c3)OCO4)o2)c1 (stereo not shown) [Cmpd 11] | 53% |

| Compound | % Inh @ 10 μM (rabbit) |
| --- | --- |
| FC(F)(F)c1cccc(-c2ccc(CN3CCc4c([nH]c5ccccc45)C3c3ccc4c(c3)OCO4)o2)c1 (stereo not shown) [Cmpd 12] | 76% |
| CN(C)CCn1c2c(c3ccccc31)CCN(C(=O)c1cc3cc([N+](=O)[O-])ccc3o1)C2c1ccc2c(c1)OCO2 (stereo not shown) [Cmpd 13] | 94% |
| O=C(c1cc2cc([N+](=O)[O-])ccc2o1)N1CCc2c([nH]c3ccccc23)C1c1ccc2c(c1)OCO2 (stereo not shown) [Cmpd 14] | 88% |
| COc1ccc2cc(C(=O)N3CCc4c([nH]c5ccccc45)C3c3ccc4c(c3)OCO4)oc2c1 (stereo not shown) [Cmpd 15] | 90% |
| O=C(c1cc2ccccc2o1)N1CCc2c([nH]c3ccccc23)C1c1ccc2c(c1)OCO2 (stereo not shown) [Cmpd 16] | 88% |
| CN(C)CCn1c2c(c3ccccc31)CCN(C(=O)c1cc3ccccc3s1)C2c1ccc2c(c1)OCO2 (stereo not shown) [Cmpd 17] | 88% |
| O=C(c1cc2ccccc2s1)N1CCc2c([nH]c3ccccc23)C1c1ccc2c(c1)OCO2 (stereo not shown) [Cmpd 18] | 87% |
| O=C(c1ccc(-c2cccc([N+](=O)[O-])c2)o1)N1CCc2c(n(C(=O)c3ccc(-c4cccc([N+](=O)[O-])c4)o3)c3ccccc23)C1c1ccc2c(c1)OC(F)(F)O2 (stereo not shown) [Cmpd 19] | 15% |
| O=C(c1ccc(-c2cccc(C(F)(F)F)c2)o1)N1CCc2c(n(C(=O)c3ccc(-c4cccc(C(F)(F)F)c4)o3)c3ccccc23)C1c1ccc2c(c1)OC(F)(F)O2 (stereo not shown) [Cmpd 20] | 4% |
| O=C(c1ccc(-c2cccc([N+](=O)[O-])c2)o1)N1CCc2c([nH]c3ccccc23)C1c1ccc2c(c1)OC(F)(F)O2 (stereo not shown) [Cmpd 21] | 32% |
| O=C(c1ccc(-c2cccc(C(F)(F)F)c2)o1)N1CCc2c([nH]c3ccccc23)C1c1ccc2c(c1)OC(F)(F)O2 (stereo not shown) [Cmpd 22] | 16% |
| COC(=O)CCn1c2c(c3ccccc31)CCN(C(=O)c1ccc(-c3cccc(C(F)(F)F)c3)o1)C2c1ccc2c(c1)OCO2 (stereo not shown) [Cmpd 23] | 30% |
| COC(=O)Cn1c2c(c3ccccc31)CCN(C(=O)c1ccc(-c3cccc([N+](=O)[O-])c3)o1)C2c1ccc2c(c1)OCO2 (stereo not shown) [Cmpd 24] | 40% |
| COC(=O)Cn1c2c(c3ccccc31)CCN(C(=O)c1ccc(-c3cccc(C(F)(F)F)c3)o1)C2c1ccc2c(c1)OCO2 (stereo not shown) [Cmpd 25] | 20% |
| O=C(c1ccc(-c2cccc(C(F)(F)F)c2)o1)N1CCc2c(n(Cc3ccccn3)c3ccccc23)C1c1ccc2c(c1)OCO2 (stereo not shown) [Cmpd 26] | 88% |
| O=C(c1ccc(-c2cccc(C(F)(F)F)c2)o1)N1CCc2c(n(CCCCCl)c3ccccc23)C1c1ccc2c(c1)OCO2 (stereo not shown) [Cmpd 27] | 56% |
| O=C(c1ccc(-c2cccc(C(F)(F)F)c2)o1)N1CCc2c(n(CCN3CCOCC3)c3ccccc23)C1c1ccc2c(c1)OCO2 (stereo not shown) [Cmpd 28] | 94% |
| O=C(O)CCn1c2c(c3ccccc31)CCN(C(=O)c1ccc(-c3cccc(C(F)(F)F)c3)o1)C2c1ccc2c(c1)OCO2 (stereo not shown) [Cmpd 29] | 79% |
| O=C(O)Cn1c2c(c3ccccc31)CCN(C(=O)c1ccc(-c3cccc([N+](=O)[O-])c3)o1)C2c1ccc2c(c1)OCO2 (stereo not shown) [Cmpd 30] | 93% |
| O=C(O)Cn1c2c(c3ccccc31)CCN(C(=O)c1ccc(-c3cccc(C(F)(F)F)c3)o1)C2c1ccc2c(c1)OCO2 (stereo not shown) [Cmpd 31] | 75% |
| CN(C)CCCCn1c2c(c3ccccc31)CCN(C(=O)c1ccc(-c3cccc(C(F)(F)F)c3)o1)C2c1ccc2c(c1)OCO2 (stereo not shown) [Cmpd 34] | 67% |
| CN(C)CCn1c2c(c3ccccc31)CCN(C(=O)c1ccc(-c3cccc(C(F)(F)F)c3)o1)C2c1ccc2c(c1)OCO2 (stereo not shown) [Cmpd 35] | 98% |
| CN(C)CCn1c2c(c3ccccc31)CCN(C(=O)c1ccc(C(C)(C)C)o1)C2c1ccc2c(c1)OCO2 (stereo not shown) [Cmpd 36] | 97% |
| CN(C)CCn1c2c(c3ccccc31)CCN(C(=O)c1ccc(-c3ccc([N+](=O)[O-])cc3)o1)C2c1ccc2c(c1)OCO2 (stereo not shown) [Cmpd 37] | 95% |
| CN(C)CCn1c2c(c3ccccc31)CCN(C(=O)c1ccc(-c3cccc([N+](=O)[O-])c3)o1)C2c1ccc2c(c1)OCO2 (stereo not shown) [Cmpd 38] | 91% |
| CN(C)CCn1c2c(c3ccccc31)CCN(C(=O)c1ccc(-c3ccc(Cl)cc3)o1)C2c1ccc2c(c1)OCO2 (stereo not shown) [Cmpd 39] | 93% |
| CN(C)CCn1c2c(c3ccccc31)CCN(C(=O)c1ccc(-c3ccc(Cl)cc3[N+](=O)[O-])o1)C2c1ccc2c(c1)OCO2 (stereo not shown) [Cmpd 40] | 78% |

Same assay, conditions: 10 μM test compound; rabbit PDEV; 10 µM

| Compound | % Inh @ 10 μM (rabbit) |
| --- | --- |
| CCN(CC)CCn1c2c(c3ccccc31)CCN(C(=O)c1ccc(-c3cccc(C(F)(F)F)c3)o1)C2c1ccc2c(c1)OCO2 (stereo not shown) [Cmpd 33] | 88% and 63% |
